Experimental data reported in PubChem BioAssay AID248 (DTP/NCI, 2004).
“And” between values parts separate entries of the source, which are not always exact repeats. Equal entries are not always repeated. Toxic doses and inconclusive results are not listed. No stated cut-off is given here; in the data, active means T/C of 150% or more; inactive means T/C below 125%.

Test system: L1210 leukemia ip in BDF1 mice, survival T/C
Test: NCI In Vivo Anticancer Drug Screen. Data for tumor model L1210 Leukemia (intraperitoneal) in B6D2F1 (BDF1) mice
Details: endpoint: mean survival time, higher = longer survival
Procedure, shortened: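 Read-out is survival time, reported as the treated-group measurement over the vehicle-control measurement.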

[1] = dose: 100.0 mg/kg/injection, schedule: Q04DX003 (ip), vehicle: saline
[2] = dose: 200.0 mg/kg/injection, schedule: Q04DX003 (ip), vehicle: saline
[3] = dose: 100.0 mg/kg/injection, schedule: Q01DX009 (ip), vehicle: Klucel (hydroxypropylcellulose) (HPC)
[4] = dose: 400.0 mg/kg/injection, schedule: Q01DX009 (ip), vehicle: Klucel (hydroxypropylcellulose) (HPC)
[5] = dose: 50.0 mg/kg/injection, schedule: Q01DX009 (ip), vehicle: saline
[6] = dose: 100.0 mg/kg/injection, schedule: Q01DX009 (ip), vehicle: saline

Measured: T/C

O=C(O)c1cccc([N+](=O)[O-])c1C(=O)c1ccccc1
inactive: dose: 100.0 mg/kg/injection, schedule: Q04DX003 (ip), vehicle: saline with Tween-80 95 % of control | dose: 200.0 mg/kg/injection, schedule: Q04DX003 (ip), vehicle: saline with Tween-80 97 % of control | dose: 400.0 mg/kg/injection, schedule: Q04DX003 (ip), vehicle: saline with Tween-80 93 % of control

CC(C)(CCC(=O)O)[N+](=O)[O-]
inactive: dose: 50.0 mg/kg/injection, schedule: Q04DX003 (ip), vehicle: saline 106 % of control | [1] 105 % of control | [2] 101 % of control

O=c1[nH]cnc2c1nc([Se])n2C1OC(CO)C(O)C1O (centres undefined)
inactive: dose: 100.0 mg/kg/injection, schedule: Q01DX005 (ip), vehicle: saline 102 % of control | dose: 200.0 mg/kg/injection, schedule: Q01DX005 (ip), vehicle: saline 107 % of control

O=C(O)c1ccc(C(=O)/C=N/O)nc1
inactive: [3] 90 % of control | dose: 200.0 mg/kg/injection, schedule: Q01DX009 (ip), vehicle: Klucel (hydroxypropylcellulose) (HPC) 93 % of control | [4] 97 % of control

CC(C)(O)C[N+](=O)[O-]
inactive: [5] 88 % of control | [6] 88 % of control | dose: 200.0 mg/kg/injection, schedule: Q01DX009 (ip), vehicle: saline 88 % of control

CC(=O)NNC(=O)c1ccccn1
inactive: dose: 4.0 mg/kg/injection, schedule: Q03HX024 (ip), vehicle: saline 109 % of control | dose: 8.0 mg/kg/injection, schedule: Q03HX008 (ip), vehicle: saline 96 % of control | dose: 8.0 mg/kg/injection, schedule: Q03HX016 (ip), vehicle: saline 111 % of control | dose: 8.0 mg/kg/injection, schedule: Q03HX024 (ip), vehicle: saline 105 % of control | dose: 16.0 mg/kg/injection, schedule: Q03HX008 (ip), vehicle: saline 105 % of control | dose: 16.0 mg/kg/injection, schedule: Q03HX016 (ip), vehicle: saline 98 % of control | dose: 16.0 mg/kg/injection, schedule: Q03HX024 (ip), vehicle: saline 104 % of control | dose: 32.0 mg/kg/injection, schedule: Q01DX009 (ip), vehicle: saline 104 % of control | dose: 32.0 mg/kg/injection, schedule: Q01DX009 (oral), vehicle: saline 102 % of control | dose: 32.0 mg/kg/injection, schedule: Q03HX008 (ip), vehicle: saline 103 % of control | dose: 32.0 mg/kg/injection, schedule: Q03HX016 (ip), vehicle: saline 104 % of control | dose: 32.0 mg/kg/injection, schedule: Q03HX024 (ip), vehicle: saline 108 % of control | dose: 32.0 mg/kg/injection, schedule: Q04DX003 (ip), vehicle: saline 108 % of control | dose: 64.0 mg/kg/injection, schedule: Q01DX001 (ip), vehicle: saline 102 % of control | dose: 64.0 mg/kg/injection, schedule: Q01DX001 (oral), vehicle: saline 106 % of control | dose: 64.0 mg/kg/injection, schedule: Q01DX009 (ip), vehicle: saline 108 % of control | dose: 64.0 mg/kg/injection, schedule: Q01DX009 (oral), vehicle: saline 114 % of control | dose: 64.0 mg/kg/injection, schedule: Q03HX008 (ip), vehicle: saline 109 % of control | dose: 64.0 mg/kg/injection, schedule: Q03HX016 (ip), vehicle: saline 111 % of control | dose: 64.0 mg/kg/injection, schedule: Q03HX024 (ip), vehicle: saline 117 % of control | dose: 64.0 mg/kg/injection, schedule: Q04DX003 (ip), vehicle: saline 100 % of control | dose: 64.0 mg/kg/injection, schedule: Q08DX002 (ip), vehicle: saline 104 % of control | dose: 75.0 mg/kg/injection, schedule: Q01DX Z (ip), vehicle: water 95 % of control and 105 % of control | dose: 100.0 mg/kg/injection, schedule: Q01DX Z (ip), vehicle: water 96 % of control and 103 % of control | dose: 128.0 mg/kg/injection, schedule: Q01DX001 (ip), vehicle: saline 100 % of control | dose: 128.0 mg/kg/injection, schedule: Q01DX001 (oral), vehicle: saline 108 % of control | dose: 128.0 mg/kg/injection, schedule: Q01DX009 (ip), vehicle: saline 124 % of control | dose: 128.0 mg/kg/injection, schedule: Q01DX009 (oral), vehicle: saline 119 % of control | dose: 128.0 mg/kg/injection, schedule: Q04DX003 (ip), vehicle: saline 103 % of control | dose: 128.0 mg/kg/injection, schedule: Q08DX002 (ip), vehicle: saline 103 % of control | dose: 150.0 mg/kg/injection, schedule: Q01DX Z (ip), vehicle: water 105 % of control and 89 % of control | dose: 256.0 mg/kg/injection, schedule: Q01DX001 (ip), vehicle: saline 109 % of control | dose: 256.0 mg/kg/injection, schedule: Q01DX001 (oral), vehicle: saline 108 % of control | dose: 256.0 mg/kg/injection, schedule: Q01DX009 (ip), vehicle: saline 103 % of control | dose: 256.0 mg/kg/injection, schedule: Q04DX003 (ip), vehicle: saline 105 % of control | dose: 256.0 mg/kg/injection, schedule: Q08DX002 (ip), vehicle: saline 109 % of control

CC(C)(C)NC(=O)NCCc1ccccc1
inactive: [3] 106 % of control | dose: 100.0 mg/kg/injection, schedule: Q04DX003 (ip), vehicle: Klucel (hydroxypropylcellulose) (HPC) 96 % of control | dose: 200.0 mg/kg/injection, schedule: Q04DX003 (ip), vehicle: Klucel (hydroxypropylcellulose) (HPC) 97 % of control and 89 % of control | [4] 103 % of control | dose: 400.0 mg/kg/injection, schedule: Q04DX003 (ip), vehicle: Klucel (hydroxypropylcellulose) (HPC) 91 % of control and 92 % of control

CSCC(C)O (centres undefined)
inactive: [1] 109 % of control | [2] 115 % of control | dose: 400.0 mg/kg/injection, schedule: Q04DX003 (ip), vehicle: saline 109 % of control

O=[N+]([O-])c1ccc(S(=O)(=O)OCc2ccccc2COS(=O)(=O)c2ccc([N+](=O)[O-])cc2)cc1
inactive: dose: 50.0 mg/kg/injection, schedule: Q04DX002 (ip), vehicle: saline with Tween-80 106 % of control | dose: 100.0 mg/kg/injection, schedule: Q04DX002 (ip), vehicle: saline with Tween-80 101 % of control

CCCCCCC(=O)OCCN1CCN(CC/C=C2\c3ccccc3Sc3ccc(C(F)(F)F)cc32)CC1
inactive: dose: 50.0 mg/kg/injection, schedule: Q01DX001 (ip), vehicle: carboxymethylcellulose (CMC) 94 % of control | [5] 123 % of control | dose: 100.0 mg/kg/injection, schedule: Q01DX001 (ip), vehicle: carboxymethylcellulose (CMC) 92 % of control | [6] 108 % of control | dose: 132.0 mg/kg/injection, schedule: Q04DX003 (ip), vehicle: saline 103 % of control | dose: 200.0 mg/kg/injection, schedule: Q01DX001 (ip), vehicle: carboxymethylcellulose (CMC) 94 % of control | [2] 110 % of control | dose: 400.0 mg/kg/injection, schedule: Q01DX001 (ip), vehicle: carboxymethylcellulose (CMC) 94 % of control

Cc1cc(C)c(C)c(OCC(=O)O)c1
inactive: dose: 75.0 mg/kg/injection, schedule: Q01DX001 (ip), vehicle: other 97 % of control | dose: 150.0 mg/kg/injection, schedule: Q01DX001 (ip), vehicle: other 97 % of control | dose: 300.0 mg/kg/injection, schedule: Q01DX001 (ip), vehicle: other 95 % of control

CC(C)(NC(=O)NCCCl)C(=O)O
inactive: dose: 100.0 mg/kg/injection, schedule: Q01DX001 (ip), vehicle: Klucel (hydroxypropylcellulose) (HPC) 105 % of control | dose: 200.0 mg/kg/injection, schedule: Q01DX001 (ip), vehicle: Klucel (hydroxypropylcellulose) (HPC) 96 % of control | dose: 400.0 mg/kg/injection, schedule: Q01DX001 (ip), vehicle: Klucel (hydroxypropylcellulose) (HPC) 94 % of control
